Here are results for 1 substance from patent publication US20160000750A1, “COMBINATION OF EGCG OR METHYLATED EGCG AND A PDE INHIBITOR” (KYUSHU UNIVERSITY, NATIONAL UNIVERSITY CORPORATION, priority 2010, published 2016).

The test system of assay [1] is human multiple myeloma cell line, U266. In words: Apoptosis induction by Annexin V PI double staining, U266. The format is cell-based. The settings on record: vardenafil 5 μM, EGCG 5 μM, 96 hours. As for the experimental part:
A propidium iodide (PI) staining solution was prepared by suspending PI (Sigma Corporation) in PBS at a concentration of 50 μg/mL and was used in investigation of the anti-cancer activity of a combination of EGCG and vardenafil by Annexin V PI double staining. The PBS used was prepared by dissolving 8.0 g of NaCl, 0.2 g of KCl, 1.15 g of Na2HPO4, and 0.2 g of KH2PO4 in 1 L of ultrapure water, followed by autoclave sterilization. The Annexin V Binding Buffer used was prepared with 10 mM HEPES, 140 mM NaCl, and 2.5 mM CaCl2 (Wako Pure Chemical Industries, Ltd.) to be pH 7.4, followed by filter sterilization.
Cell lines, U266 and HL60, adjusted to be 5×10^4 cells/mL (U266) and 1×10^4 cells/mL (HL60), respectively, in an RPMI 1640 medium supplemented with 1% FCS were seeded in a 96-well plate. […]
The plate was returned to the incubator immediately after the addition of EGCG, followed by culturing for 96 hours. […] The supernatant was removed, and the cells were suspended in an Annexin V Binding uffer, and the number of the cells was counted with a hemocytometer. […] Subsequently, 400 μL of an Annexin V Binding Buffer was added thereto from above, and the cells were counted with a flow cytometer, FACS Caliber (Becton, Dickinson and Company). After compensation, the Annexin V Alexa Fluor 488 Conjugate was measured at FL 1, and the cells deemed to be positive were determined as apoptotic cells. […]

The subject of assay [2] is human acute myeloid leukemia cell line, HL60. Put plainly: Involvement of 67LR (anti-67LR antibody MLuc5) in cell-killing and cytostatic activity, HL60. The settings on record: HL60, 96-well; vardenafil 5 μM, EGCG 5 μM; 96 hours; without anti-67LR antibody (isotype control mouse IgM). Type of assay: cell-based. As for the experimental part:
A trypan blue staining solution was prepared by suspending trypan blue in PBS at a concentration of 1% and was used in investigation of the anti-cancer activity of a combination of EGCG and vardenafil by trypan blue assay. The PBS used was prepared by dissolving 8.0 g of NaCl, 0.2 g of KCl, 1.15 g of Na2HPO4, and 0.2 g of KH2PO4 in 1 L of ultrapure water, followed by autoclave sterilization.
A human multiple myeloma cell line, U266, and a human acute myeloid leukemia cell line, HL60, adjusted to be 5×10^4 cells/mL (U266) and 1×10^4 cells/mL (HL60), respectively, in an RPMI 1640 medium supplemented with 1% FCS were seeded in a 96-well plate (Falcon Co., Ltd.). Vardenafil was added thereto at a final concentration of 5 μM. Immediately after the addition, an anti-67LR monoclonal antibody, MLuc5 (Abcam PLC), was added thereto at a final concentration of 20 μg/mL. In the group of adding an isotype control antibody, mouse IgM (Cosmo Bio Co., Ltd., Tokyo) was added at a final concentration of 20 μg/mL. […]
The plate was returned to the incubator immediately after the addition of EGCG, followed by culturing for 96 hours. […] After 10 minutes, the number of the cells was counted with a hemocytometer. Unstained cells were deemed as viable cells, and the cell viability was determined as a ratio of the number of unstained cells in trypan blue staining to the total number of cells. […]

For (−)-epigallocatechin-3-O-gallate [EGCG], the “apoptosis-inducing activity (apoptotic cell ratio)” value in assay [1] (Annexin V PI double staining) is given as “apoptosis was induced”. Besides, in assay [1] (anti-67LR antibody MLuc5 20 μg/mL), the “apoptosis-inducing activity under treatment with anti-67LR antibody” value is “completely cancelled”. In assay [2], the “cell viability (cell-killing activity)” value is listed as “any cytotoxicity was not observed”.
